# Target: T1, renin (Homo sapiens, UniProt P00797)
# T1 sequence (P00797 67-406): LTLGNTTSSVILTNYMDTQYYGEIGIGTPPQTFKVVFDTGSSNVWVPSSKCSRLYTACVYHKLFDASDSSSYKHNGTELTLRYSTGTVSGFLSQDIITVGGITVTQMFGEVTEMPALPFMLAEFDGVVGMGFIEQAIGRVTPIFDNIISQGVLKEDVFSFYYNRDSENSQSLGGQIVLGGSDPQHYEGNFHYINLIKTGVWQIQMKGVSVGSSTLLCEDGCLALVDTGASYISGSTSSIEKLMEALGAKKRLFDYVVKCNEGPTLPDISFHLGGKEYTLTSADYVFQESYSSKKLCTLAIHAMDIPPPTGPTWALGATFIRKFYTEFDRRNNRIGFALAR
# Experiment: in vitro renin inhibition, radioimmunoassay for angiotensin I
# Type: biochemical
# Conditions: incubated for two hours at 37° in the presence of angiotensinogen, read-out: IC50 (molar concentration of test compound causing a 50% inhibition of the renin activity)
# Protocol: The compounds of the present invention are valuable because of their ability to inhibit renin in an in vitro assay. Activity is determined by a standard radioimmunoassay for angiotensin I. In the assay, the enzyme renin, incubated for two hours at 37° in the presence of a substrate, angiotensinogen, generates the product angiotensin I. Test compounds are added to the incubation mixture. Relative activity is reported as the IC50, which is the molar concentration of test compound causing a 50% inhibition of the renin activity.
# The in vitro test employed is more fully described in "Methods in Enzymatic Analysis", Bergmeyer, J., and Grass, N., eds., 3rd edition Weinheim: Verlag Chemie, pp. 251-258 (1984).
row,IC50 [nM],SMILES
1,1000,CC(C)C[C@H](NC(=O)[C@H](Cc1c[nH]cn1)NC(=O)[C@H](Cc1ccccc1)NC(=O)OC(C)(C)C)C(O)C(=O)OC(C)C (some centres unmarked) [Example 1]
2,140,"CC(C)C[C@H](NC(=O)[C@H](Cc1c[nH]cn1)NC(=O)C(Cc1cccc2ccccc12)Cc1cccc2ccccc12)[C@@H](O)C(=O)OC(C)C [Example 1b, [2R-[2R*,3S*(S*)]]-2-hydroxy-3-[[-3-(1H-imidazol-4-yl)-2-[[3-(1-naphthalenyl)-2-(1-naphthalenylmethyl)-1-oxopropyl]amino]-1-oxopropyl]amino]-5-methylhexanoic acid, 1-methylethyl ester]"
